Columns and labels:
[1] = system: normal pancreatic duct epithelial cells HPDE-6; parameters: method as in PMID 23588713; settings: cited from earlier work
[2] = system: MIA PaCa-2 tumor xenograft; assay: Human pancreatic tumor xenograft experiment; format: in vivo, female nude mice; settings: day 34; for Average tumor volume: control approximately 448 mm^3
Experimental: Animal experiments were conducted strictly in accordance with the protocol approved by the Animal Research Committee at the Methodist Hospital (protocol no. 2011–07). MIA PaCa-2 cells (3x10^6) in 100 μl DPBS were implanted subcutaneously in the right flank on the ventral side of the 6 weeks old female nude mice (Harlan, Indianapolis, IN, USA). When tumors became palpable after 1–3 weeks (40–60 mm^3), animals were randomly assigned into three groups (n = 15) and received intraperitoneal (i.p.) injection 3 times per week of vehicle or PA (25 mg kg^-1 and 50 mg kg^-1) of body weight for additional 5 weeks. Tumor sizes were measured 3 times per week with microcalipers and the tumor volumes were calculated with the standard formula: tumor volume (mm^3) = L x W^2 x 0.5, where L is the length and W is the width of the tumor. At the end of the experiment (Day 35), the mice were euthanized by CO2 inhalation. The tumors were harvested and fixed in 10% neutral-buffered formalin at 4°C for 24 h or snap frozen and stored separately in liquid nitrogen.

[3] = parameters: method as in PMID 22213174; settings: rats fed by P. cocos; cited from earlier work
[4] = 25 mg kg^-1 i.p. 3 times per week
[5] = 50 mg kg^-1 i.p. 3 times per week

## C=C(CC[C@@H](C(=O)O)[C@H]1[C@H](O)C[C@@]2(C)C3=C(CC[C@]12C)[C@@]1(C)CC[C@H](OC(C)=O)C(C)(C)[C@@H]1CC3)C(C)C [PA, Pachymic acid]
[1]
  Effect on growth of normal pancreatic duct epithelial cells: only slightly affects
[2]; [4]
  Inhibition of tumor volume vs control: ~75%
  Average tumor volume: about 112 mm^3
[2]; [5]
  Inhibition of tumor volume vs control: ~80%
  Average tumor volume: ~89 mm^3
[3]
  Presence in urine and plasma: detectable
